Results: patent US12692235B2, “Fused ring compound and application thereof” (WUHAN LL SCIENCE AND TECHNOLOGY DEVELOPMENT CO., LTD., priority 2019, dated 2026)

Biological target: T1, hP2X4 (human purinergic P2X receptor subtype 4) (Homo sapiens, UniProt Q99571)
T1 sequence (Q99571 1-404 isoform Q99571-2): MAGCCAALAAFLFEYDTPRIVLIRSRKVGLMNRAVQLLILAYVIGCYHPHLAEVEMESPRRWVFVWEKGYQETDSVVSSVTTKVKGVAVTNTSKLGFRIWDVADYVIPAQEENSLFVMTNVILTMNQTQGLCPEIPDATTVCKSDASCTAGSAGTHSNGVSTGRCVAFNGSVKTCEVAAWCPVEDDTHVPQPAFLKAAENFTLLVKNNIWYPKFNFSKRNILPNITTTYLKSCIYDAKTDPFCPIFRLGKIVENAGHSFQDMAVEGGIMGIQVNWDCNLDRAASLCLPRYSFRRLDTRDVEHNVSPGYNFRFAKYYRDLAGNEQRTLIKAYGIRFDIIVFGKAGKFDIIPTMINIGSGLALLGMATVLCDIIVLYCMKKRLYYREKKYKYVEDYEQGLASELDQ
Conditions: P2X4 IC50 (nM), HEK293 cells stably expressing hP2X4; agonist BZ-ATP 2.5 μM; FLIPR calcium
Method: Cells at 400,000 cells/mL were seeded into a 384-well plate (10,000 cells/well) 18-24 h prior to the FLIPR experiment and then incubated overnight in a cell incubator. […] Each well was added with 20 μL of 0.5×Calcium 6 fluorescent dye (Molecular Devices, R8190) and then the cells were subjected to dye-loading incubation at 37° C. for 1.5 h. Each well was added with 10 μL of respective test compound (dissolved in DMSO at a concentration of 10 mM and serially diluted with buffer) or vehicle and the mixture was equilibrated for 30 min at room temperature.

Row | IC50 | SMILES
1 | 50 to 200 nM | CN1CCN(c2cc3c(S(N)(=O)=O)cc(NC(=O)Cc4ccccc4Cl)cc3cn2)CC1 [Compound 79, 2-(2-chlorophenyl)-N-(3-(4-methylpiperazin-1-yl)-5-sulfamoylisoquinolin-7-yl)acetamide]
2 | 50 to 200 nM | CN1CCN(c2cc3c(S(N)(=O)=O)cc(NC(=O)Cc4ccccc4Cl)cc3cn2)CC1=O [Compound 80, 2-(2-chlorophenyl)-N-(3-(4-methyl-3-carbonylpiperazin-1-yl)-5-sulfamoylisoquinolin-7-yl)acetamide]
3 | 200 to 5000 nM | COc1ccc(Nc2cc3c(S(N)(=O)=O)cc(NC(=O)Cc4ccccc4Cl)cc3cn2)cc1 [Compound 81, 2-(2-chlorophenyl)-N-(3-((4-methoxyphenyl)amino)-5-sulfamoylisoquinolin-7-yl)acetamide]
4 | 200 to 5000 nM | COc1ccc(Oc2cc3c(S(N)(=O)=O)cc(NC(=O)Cc4ccccc4Cl)cc3cn2)cc1 [Compound 82, 2-(2-chlorophenyl)-N-(3-(4-methoxyphenoxy)-5-sulfamoylisoquinolin-7-yl)acetamide]
5 | 50 to 200 nM | CC(C)Nc1cc2c(S(N)(=O)=O)cc(NC(=O)Cc3ccccc3Cl)cc2cn1 [Compound 83, 2-(2-chlorophenyl)-N-(3-(isopropylamino)-5-sulfamoylisoquinolin-7-yl)acetamide]
6 | 50 to 200 nM | COCCOc1cc2c(S(N)(=O)=O)cc(NC(=O)Cc3ccccc3Cl)cc2cn1 [Compound 84, 2-(2-chlorophenyl)-N-(3-(2-methoxyethoxy)-5-sulfamoylisoquinolin-7-yl)acetamide]
7 | 200 to 5000 nM | NS(=O)(=O)c1cc(NC(=O)Cc2ccccc2Cl)cc2nc(C3CC3)ccc12 [Compound 85, 2-(2-chlorophenyl)-N-(2-cyclopropyl-5-sulfamoylquinolin-7-yl)acetamide]
8 | 200 to 5000 nM | C#Cc1ccc2c(S(N)(=O)=O)cc(NC(=O)Cc3ccccc3Cl)cc2n1 [Compound 86, 2-(2-chlorophenyl)-N-(2-ethynyl-5-sulfamoylquinolin-7-yl)acetamide]
9 | 10 to 50 nM | CC#Cc1ccc2c(S(N)(=O)=O)cc(NC(=O)Cc3ccccc3Cl)cc2n1 [Compound 87, 2-(2-chlorophenyl)-N-(2-(prop-1-yn-1-yl)-5-sulfamoylquinolin-7-yl)acetamide]
10 | 50 to 200 nM | CN(C)c1ccc2c(S(N)(=O)=O)cc(NC(=O)Cc3ccccc3Cl)cc2n1 [Compound 88, 2-(2-chlorophenyl)-N-(2-(dimethylamino)-5-sulfamoylquinolin-7-yl)acetamide]
11 | 200 to 5000 nM | NS(=O)(=O)c1cc(NC(=O)Cc2ccccc2Cl)cc2nc(N3CCCC3)ccc12 [Compound 89, (2-chlorophenyl)-N-(2-(pyrrolidin-1-yl)-5-sulfamoylquinolin-7-yl)acetamide]
12 | 50 to 200 nM | N#Cc1nccc2c(S(N)(=O)=O)cc(NC(=O)Cc3ccccc3Cl)cc12 [Compound 90]
13 | 200 to 5000 nM | COc1nccc2c(S(N)(=O)=O)cc(NC(=O)Cc3c(Cl)cccc3Cl)cc12 [Compound 91, 2-(2,6-dichlorophenyl)-N-(1-methoxy-5-sulfamoylisoquinolin-7-yl)acetamide]
14 | 50 to 200 nM | COc1nccc2c(S(N)(=O)=O)cc(NC(=O)Cc3ccc(Cl)cc3Cl)cc12 [Compound 92, 2-(2,4-dichlorophenyl)-N-(1-methoxy-5-sulfamoylisoquinolin-7-yl)acetamide]
15 | 50 to 200 nM | COc1nccc2c(S(N)(=O)=O)cc(NC(=O)Cc3cc(F)ccc3Cl)cc12 [Compound 93, 2-(2-Chloro-5-fluorophenyl)-N-(1-methoxy-5-sulfamoylisoquinolin-7-yl)acetamide]
16 | 50 to 200 nM | COc1nccc2c(S(N)(=O)=O)cc(NC(=O)Cc3ccc(F)cc3Cl)cc12 [Compound 94, 2-(2-chloro-4-fluorophenyl)-N-(1-methoxy-5-sulfamoylisoquinolin-7-yl)acetamide]
17 | 200 to 5000 nM | COc1ccc(F)cc1CC(=O)Nc1cc(S(N)(=O)=O)c2ccnc(OC)c2c1 [Compound 95, 2-(5-fluoro-2-methoxyphenyl)-N-(1-methoxy-5-sulfamoylisoquinolin-7-yl)acetamide]
18 | 200 to 5000 nM | COc1nccc2c(S(N)(=O)=O)cc(NC(=O)Cc3ccccc3OC(F)(F)F)cc12 [Compound 96, N-(1-methoxy-5-sulfamoylisoquinolin-7-yl)-2-(2-(trifluoromethoxy)phenyl)acetamide]
19 | 50 to 200 nM | COc1nccc2c(S(N)(=O)=O)cc(NC(=O)Cc3cccc(F)c3Cl)cc12 [Compound 97, 2-(2-chloro-3-fluorophenyl)-N-(1-methoxy-5-sulfamoylisoquinolin-7-yl)acetamide]
20 | 10 to 50 nM | COC(=O)N1CCc2c(cc(NC(=O)Cc3ccccc3Cl)cc2S(N)(=O)=O)C1 [Compound 99, methyl 7-(2-(2-chlorophenyl)acetamido)-5-sulfamoyl-3,4-dihydroisoquinoline-2(1H)-carboxylate]
21 | 10 to 50 nM | CC(C)OC(=O)N1CCc2c(cc(NC(=O)Cc3ccccc3Cl)cc2S(N)(=O)=O)C1 [Compound 100, isopropyl-7-(2-(2-chlorophenyl)acetamido)-5-sulfamoyl-3,4-dihydroisoquinoline-2(1H)-carboxylate]
22 | 10 to 50 nM | NS(=O)(=O)c1cc(NC(=O)Cc2ccccc2Cl)cc2c1CCN(C(=O)OC1CC1)C2 [Compound 101, cyclopropyl-7-(2-(2-chlorophenyl)acetamido)-5-sulfamoyl-3,4-dihydroisoquinoline-2(1H)-carboxylate]
23 | 10 to 50 nM | CC(=O)N1CCc2c(cc(NC(=O)Cc3ccccc3Cl)cc2S(N)(=O)=O)C1 [Compound 102, N-(2-acetyl-5-sulfamoyl-1,2,3,4-tetrahydroisoquinolin-7-yl)-2-(2-chlorophenyl)acetamide]
24 | 10 to 50 nM | NS(=O)(=O)c1cc(NC(=O)Cc2ccccc2Cl)cc2c1CCN(C1CC1)C2 [Compound 103, 2-(2-chlorophenyl)-N-(2-cyclopropyl-5-sulfamoyl-1,2,3,4-tetrahydroisoquinolin-7-yl)acetamide]
25 | 50 to 200 nM | NS(=O)(=O)c1cc(NC(=O)Cc2ccccc2Cl)cc2c1CCN(c1ccccc1)C2 [Compound 104, 2-(2-chlorophenyl)-N-(2-phenyl-5-sulfamoyl-1,2,3,4-tetrahydroisoquinolin-7-yl)acetamide]
26 | 50 to 200 nM | NS(=O)(=O)c1cc(NC(=O)Cc2ccccc2Cl)cc2c1CCN(C(=O)Oc1ccccc1)C2 [Compound 105, phenyl 7-(2-(2-chlorophenyl)acetamido)-5-sulfamoyl-3,4-dihydroisoquinoline-2(1H)-carboxylate]
27 | 10 to 50 nM | NS(=O)(=O)c1cc(NC(=O)Cc2ccccc2Cl)cc2c1CCN(C(=O)c1ccccc1)C2 [Compound 106, N-(2-benzoyl-5-sulfamoyl-1,2,3,4-tetrahydroisoquinolin-7-yl)-2-(2-chlorophenyl)acetamide]
28 | 10 to 50 nM | NS(=O)(=O)c1cc(NC(=O)Cc2ccccc2Cl)cc2c1CCN(C(=O)C1CCC1)C2 [Compound 107]
29 | < 10 nM | NS(=O)(=O)c1cc(NC(=O)Cc2ccccc2Cl)cc2c1CCN(C(=O)C1CC1)C2 [Compound 108]
30 | 200 to 5000 nM | CCN1CCc2c(cc(NC(=O)Cc3ccccc3Cl)cc2S(N)(=O)=O)C1 [Compound 109, 2-(2-chlorophenyl)-N-(2-ethyl-5-sulfamoyl-1,2,3,4-tetrahydroisoquinolin-7-yl)acetamide]

Row | SMILES | IC50
31 | NS(=O)(=O)c1cc(NC(=O)Cc2ccccc2Cl)cc2c1CCNC2 [Compound 98, 2-(2-chlorophenyl)-N-(5-sulfamoyl-1,2,3,4-tetrahydroisoquinolin-7-yl)acetamide] | 200 to 5000 nM
